Assay [1] relates to HVA Cav channels. Kind of assay: whole-cell voltage-clamp, HVA Cav currents of rat DRG neurons. The class given is cell-based. The conditions noted are these: 10 μM, n = 3.
Assay [2] concerns the target T1, Kv4.3 (Rattus norvegicus, UniProt Q62897).
T1 construct: expressed in transfected cells; host or cells: HEK293t
T1 sequence (Q62897 1-655): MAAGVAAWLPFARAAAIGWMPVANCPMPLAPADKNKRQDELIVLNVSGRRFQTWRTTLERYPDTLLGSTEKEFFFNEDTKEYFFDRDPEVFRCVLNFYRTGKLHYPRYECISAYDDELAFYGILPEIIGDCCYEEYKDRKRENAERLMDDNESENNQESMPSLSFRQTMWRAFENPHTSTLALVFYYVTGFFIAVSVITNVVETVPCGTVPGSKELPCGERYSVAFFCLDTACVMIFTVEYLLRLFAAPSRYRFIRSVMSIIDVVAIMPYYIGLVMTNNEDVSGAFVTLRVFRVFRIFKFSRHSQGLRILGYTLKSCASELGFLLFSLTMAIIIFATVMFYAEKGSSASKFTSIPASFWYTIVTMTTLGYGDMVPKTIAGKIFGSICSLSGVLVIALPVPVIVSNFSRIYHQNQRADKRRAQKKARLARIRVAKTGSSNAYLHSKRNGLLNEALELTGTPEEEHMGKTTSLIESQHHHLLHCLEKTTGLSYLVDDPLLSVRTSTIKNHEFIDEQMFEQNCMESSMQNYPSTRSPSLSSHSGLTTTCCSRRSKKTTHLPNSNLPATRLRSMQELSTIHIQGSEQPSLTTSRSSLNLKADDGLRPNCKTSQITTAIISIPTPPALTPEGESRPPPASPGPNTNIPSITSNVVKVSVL
Kind of assay: microelectrode voltage-clamp, Xenopus laevis oocytes, Kv4.3. The format is cell-based. To be noted: +20 mV from -90 mV, n = 5, read-out: inhibition of Kv4.3 current. An excerpt:
Rat cDNA genes encoding Kv4.2 (Accession: NM_031730.2) and Kv4.3 (Accession: AB003587.1) were subcloned to vector pcDNA3.1. In addition, human cDNA genes encoding Nav1.7 (Accession: DQ857292.1) and Nav1.5 (Accession: AB158469.2) were subcloned to vectors pcDNA3.1-mod and pcDNA3.1, separately. Then, Kv4.2, Kv4.3, Nav1.5 and Nav1.7 constructs were transiently transfected into the human embryonic kidney 293t (HEK293t) cells using lipofectamine 2000 (Invitrogen, USA) in accordance with manufacturer protocols. Thereafter, HEK293 cells were inoculated within Dulbecco’s modified Eagle’s medium (DMEM) containing 10% fetal bovine serum (FBS) at 5% CO2 and 37°C. The Kv4.3 channel and the Kv4.2 counterpart were then transfected in the absence of β subunit. Subsequently, cells were incubated with a DNA-lipofectamine mixture (one reporter plasmid for green fluorescence protein and channel constructs) for 4-6 h, and were washed with the fresh medium.
Briefly, plasmids were linearized, and transcription was carried out according to the standardized protocol. Afterwards, the capped cRNAs that encoded the related ion channels were prepared. […]

The structures appear in SMILES notation. Where a SMILES comes first, the peptide text is derived from it. Bridges are numbered along the chain shown (N, C = ends).

Broadly, the inhibition is the percentage by which the read-out fell short of the control. Regarding `CC(C)C[C@@H]1NC(=O)[C@H](CCCCN)NC(=O)[C@H](Cc2ccc(O)cc2)NC(=O)[C@@H]2CSSC[C@@H]3NC(=O)[C@H](Cc4ccc(O)cc4)NC(=O)[C@H](Cc4ccccc4)NC(=O)CNC(=O)[C@H](C)NC(=O)[C@H](CSSC[C@H](NC(=O)[C@@H](N)CC(C)C)C(=O)N[C@@H](CO)C(=O)N[C@@H](CCCNC(=N)N)C(=O)N[C@@H](CCC(=O)O)C(=O)NCC(=O)N[C@@H](CCC(=O)O)C(=O)N[C@@H](Cc4ccccc4)C(=O)N2)NC(=O)[C@H](CSSC[C@@H](C(=O)N[C@@H](Cc2ccc(O)cc2)C(=O)N[C@@H](CCCNC(=N)N)C(=O)N[C@@H](CC(N)=O)C(=O)O)NC(=O)[C@H](Cc2c[nH]cn2)NC(=O)[C@H](CC(C)C)NC(=O)[C@H](C(C)C)NC(=O)[C@H](Cc2ccccc2)NC(=O)[C@H](C)NC(=O)[C@H](CCCCN)NC3=O)NC(=O)[C@H](CCCCN)NC(=O)[C@H](CCCNC(=N)N)NC1=O` [JZTX-X, Jingzhaotoxin-X] (H-LCSREGEFCYKLRKCCAGFYCKAFVLHCYRN-OH; disulfide 2-16, 9-21, 15-28; N-terminus assumed), the “inhibition of HVA Cav current” value in assay [1] is “less than 5%”. Also, the inhibition at 1 µM in assay [2] came out at 72.4 ± 4.8%.

Values taken from PMC7269146, “Jingzhaotoxin-X, a gating modifier of Kv4.2 and Kv4.3 potassium channels purified from the venom of the Chinese tarantula Chilobrachys jingzhao” (The Journal of Venomous Animals and Toxins Including …, 2020).
